The values below come from ChEMBL document CHEMBL3865849, “Development of N-(4-Phenoxyphenyl)benzenesulfonamide Derivatives as Novel Nonsteroidal Progesterone Receptor Antagonists” (ACS Med Chem Lett, 2016).

In assay [1] the target is T1, Progesterone receptor (Homo sapiens, UniProt P06401).
T1 sequence (P06401 whole entry): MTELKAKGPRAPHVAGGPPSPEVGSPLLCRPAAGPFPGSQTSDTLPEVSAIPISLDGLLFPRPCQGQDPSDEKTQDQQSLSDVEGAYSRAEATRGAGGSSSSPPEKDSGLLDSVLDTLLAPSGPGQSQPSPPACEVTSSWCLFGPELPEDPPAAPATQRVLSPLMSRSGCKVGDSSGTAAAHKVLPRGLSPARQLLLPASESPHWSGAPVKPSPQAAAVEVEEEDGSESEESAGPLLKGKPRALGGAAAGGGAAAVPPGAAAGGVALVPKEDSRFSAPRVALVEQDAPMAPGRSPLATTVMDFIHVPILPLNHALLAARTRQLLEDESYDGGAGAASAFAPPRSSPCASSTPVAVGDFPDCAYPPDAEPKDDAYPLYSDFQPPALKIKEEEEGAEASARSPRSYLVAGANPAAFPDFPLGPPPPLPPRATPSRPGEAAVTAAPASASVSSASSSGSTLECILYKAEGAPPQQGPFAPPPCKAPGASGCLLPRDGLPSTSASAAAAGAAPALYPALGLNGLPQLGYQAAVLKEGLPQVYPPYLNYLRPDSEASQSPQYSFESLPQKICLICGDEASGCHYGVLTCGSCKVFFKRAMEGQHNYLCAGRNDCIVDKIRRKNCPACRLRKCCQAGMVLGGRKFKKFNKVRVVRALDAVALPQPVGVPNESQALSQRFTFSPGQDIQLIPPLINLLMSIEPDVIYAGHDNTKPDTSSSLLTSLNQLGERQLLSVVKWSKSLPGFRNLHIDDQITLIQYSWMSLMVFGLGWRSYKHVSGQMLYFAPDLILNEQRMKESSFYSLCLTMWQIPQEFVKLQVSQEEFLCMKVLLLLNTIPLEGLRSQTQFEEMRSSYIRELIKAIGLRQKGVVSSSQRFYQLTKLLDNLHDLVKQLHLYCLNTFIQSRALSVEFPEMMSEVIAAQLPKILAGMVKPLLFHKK
The assay can be described thus: Antagonist activity at progesterone receptor in human T47D cells incubated for 24 hrs in presence of P4 by alkaline phosphatase assay. Type of assay: cell-based.

The target of assay [2] is T1, Progesterone receptor. The assay is described as follows: Displacement of [1,2,6,7-3H]-PG from recombinant human GST-tagged PR-LBD (657 to 933 residues) expressed in baculovirus infected insect cells measured after 24 hrs by liquid scintillation counting method.

For orientation: IC50 means the concentration at which inhibition is half-maximal. `CN(c1ccc(Oc2ccccc2)cc1)S(=O)(=O)c1ccccc1Cl`: the IC50 on Progesterone receptor [1] came to 0.39 µM. The same measure, in the same setting: then `COc1ccc(NS(=O)(=O)c2cccc(Cl)c2)cc1`, with 0.82 µM. Consider `O=C(c1ccccc1)c1ccc(NS(=O)(=O)c2cccc(Cl)c2)cc1`, for which the figures for the concentration for half-maximal inhibition (IC50) at Progesterone receptor [1] and at Progesterone receptor [2] were 6 µM and more than 10 µM, respectively.

As to `COc1ccc(S(=O)(=O)N(C)c2ccc(Oc3ccccc3)cc2)cc1`, the IC50 at Progesterone receptor [1] is 0.99 µM. The same measure, in the same setting: the result for `O=C(Nc1ccc(Oc2ccccc2)cc1)c1ccccc1` reads 2.8 µM; that for `COc1cccc(C(=O)Nc2ccc(Oc3ccc(O)cc3)c(C)c2)c1`, 5 µM.

Consider `COc1cccc(Oc2ccc(NC(=O)c3ccccc3)cc2)c1`, for which, at Progesterone receptor [1], the IC50 is 3.8 µM. On the same count and under the same terms, then `Cc1ccc(NS(=O)(=O)c2cccc(Cl)c2)cc1`, with 1.3 µM; and `COc1ccc(S(=O)(=O)Nc2ccc(Oc3ccccc3)cc2)cc1`, with 0.5 µM; and `COc1cccc(S(=O)(=O)Nc2ccc(Oc3ccc(O)cc3)c(C)c2)c1`, with 2 µM. In the case of `O=S(=O)(c1ccc(Cl)cc1)N(Cc1ccccc1)c1ccc(Oc2ccccc2)cc1`, the IC50 on Progesterone receptor [1] turned out to be 3 µM. Still for that read-out and setting: then `COc1cccc(Oc2ccc(NS(=O)(=O)c3ccccc3)cc2)c1`, with 0.49 µM; and `COc1cccc(S(=O)(=O)N(C)c2ccc(Oc3ccccc3)cc2)c1`, with 0.47 µM; and `O=S(=O)(Nc1ccccc1)c1cccc(Cl)c1`, with 1.5 µM. For the compound `COc1ccc(S(=O)(=O)N(Cc2ccccc2)c2ccc(Oc3ccccc3)cc2)cc1`, the 50% inhibitory concentration (IC50) at Progesterone receptor [1] was found to be 3.5 µM.

As for `O=S(=O)(Nc1ccc(Cc2ccccc2)cc1)c1cccc(Cl)c1`, on Progesterone receptor [1], the IC50 amounted to 0.45 µM. Same read-out and setting: then `O=S(=O)(c1cccc(Cl)c1)N(Cc1ccccc1)c1ccc(Oc2ccccc2)cc1`, with 2.2 µM; and `O=S(=O)(Nc1ccc(Oc2ccccc2)cc1)c1ccccc1`, with 0.52 µM. Turning to `O=S(=O)(Nc1ccc(Oc2ccccc2)cc1)c1cccc(Br)c1`, the IC50 on Progesterone receptor [1] came out at 0.11 µM; on Progesterone receptor [2], 0.047 µM. `O=S(=O)(c1ccccc1Cl)N(Cc1ccccc1)c1ccc(Oc2ccccc2)cc1`: on Progesterone receptor [1], the 50% inhibitory concentration (IC50) worked out at 2.2 µM. For `O=S(=O)(Nc1ccc(OCc2ccccc2)cc1)c1cccc(Cl)c1`, at Progesterone receptor [1], the 50% inhibitory concentration (IC50) amounted to 0.81 µM. Same read-out and setting: then `O=S(=O)(Nc1ccc(Oc2ccccc2)cc1)c1ccc2ccccc2c1`, with 1.7 µM; and `N#Cc1cccc(S(=O)(=O)Nc2ccc(Oc3ccccc3)cc2)c1`, with 0.3 µM; and `COc1cccc(S(=O)(=O)N(Cc2ccccc2)c2ccc(Oc3ccccc3)cc2)c1`, with 2.6 µM.

On to `CN(c1ccc(Oc2ccccc2)cc1)S(=O)(=O)c1ccc(Cl)cc1`, for which the IC50 on Progesterone receptor [1] came to 0.96 µM. Same read-out and setting: the result for `CS(=O)(=O)Nc1ccc(Oc2ccccc2)cc1` reads 2.2 µM. In the case of `O=[N+]([O-])c1cccc(S(=O)(=O)Nc2ccc(Oc3ccccc3)cc2)c1`, the IC50 at Progesterone receptor [1] and on Progesterone receptor [2] was 0.14 µM each time.

For `O=S(=O)(Nc1ccc(Oc2ccccc2)cc1)c1cc(Cl)cc(Cl)c1`, the IC50 on Progesterone receptor [1] came to 0.32 µM. Still for that read-out and setting: then `O=S(=O)(Nc1ccc(Oc2ccccc2)cc1)c1ccc(Cl)c(Cl)c1`, with 0.41 µM; and `COc1cccc(Oc2ccc(NS(=O)(=O)c3cccc(Cl)c3)cc2)c1`, with 0.27 µM; and `O=S(=O)(Nc1ccc(Br)cc1)c1cccc(Cl)c1`, with 1.3 µM. On the same count and under the same terms, the result for `O=S(=O)(Nc1ccc(Oc2ccccc2)cc1)c1ccccc1Cl` reads 0.74 µM; that for `O=S(=O)(Nc1ccc(Oc2ccccc2)cc1)c1cccc(Cl)c1Cl`, 0.64 µM. Turning to `CC(C)c1ccc(NS(=O)(=O)c2cccc(Cl)c2)cc1`, the half-inhibitory concentration (IC50) at Progesterone receptor [1] was 0.51 µM. Regarding `O=S(=O)(Cc1ccccc1)Nc1ccc(Oc2ccccc2)cc1`, on Progesterone receptor [1], the 50% inhibitory concentration (IC50) came out at 1.6 µM.

Consider `O=S(=O)(Nc1ccc(Oc2ccccc2)cc1)c1cccc2ccccc12`, for which, at Progesterone receptor [1], the half-inhibitory concentration (IC50) worked out at 0.19 µM.

Consider `O=S(=O)(Nc1ccc(Oc2ccccc2)cc1)c1ccc(Cl)cc1`, for which the IC50 at Progesterone receptor [1] amounted to 0.67 µM. Still for that read-out and setting: then `COc1cccc(S(=O)(=O)Nc2ccc(Oc3ccccc3)cc2)c1`, with 0.25 µM.

For `O=S(=O)(Nc1ccc(Oc2ccccc2)cc1)c1cccc(Cl)c1`, the concentration for half-maximal inhibition (IC50) on Progesterone receptor [1] was 0.17 µM; at Progesterone receptor [2], 0.062 µM. As for `O=S(=O)(Nc1ccc(Oc2ccccc2)cc1)c1cc(Cl)c(Cl)cc1Cl`, the half-maximal inhibitory concentration (IC50) at Progesterone receptor [1] turned out to be 1.6 µM. For the compound `O=S(=O)(Nc1ccc(Oc2ccccc2)cc1)c1cccc(F)c1`, the figures for the half-maximal inhibitory concentration (IC50) at Progesterone receptor [1] and at Progesterone receptor [2] were 0.22 µM and 0.31 µM, respectively. For the compound `COc1cccc(Oc2ccc(NS(=O)(=O)c3cccc(OC)c3)cc2)c1`, the IC50 at Progesterone receptor [1] came to 0.37 µM. On the same count and under the same terms, the result for `CN(c1ccc(Oc2ccccc2)cc1)S(=O)(=O)c1cccc(Cl)c1` reads 0.65 µM. For `O=S(=O)(Nc1ccc(-c2ccccc2)cc1)c1cccc(Cl)c1`, the IC50 at Progesterone receptor [1] was 0.33 µM; on Progesterone receptor [2], 0.11 µM.
